The record followed here is patent US6440903B1, “Substituted 2,4-diamino-1,3,5-triazines as herbicides” (Bayer Aktiengesellschaft, priority 1996, dated 2002).

In one data set the test system is weeds. Kind of data set: Post-emergence test (summary in text). Type of data set: in vivo. Conditions: result in words. As to the method:
Solvent: 5 parts by weight of acetone
Emulsifier: 1 part by weight of alkylaryl polyglycol ether
To produce a suitable preparation of active compound, 1 part by weight of active compound is mixed with the stated amount of solvent, the stated amount of emulsifier is added and the concentrate is diluted with water to the desired concentration.
Test plants which have a height of 5-15 cm are sprayed with the preparation of active compound such that the particular amounts of active compounds desired are applied per unit area. The concentration of the spray liquor is chosen so that the particular amounts of active compound desired are applied in 1000 l of water/ha.
After three weeks, the degree of damage to the plants is scored visually in % damage in comparison to the untreated control.
0%=no effect (like untreated control)

Another data set concerns Polygonum. Kind of data set: Post-emergence test. Conditions: greenhouse, scored after three weeks; for pest or weed control at 250 g/ha / pest or weed control at 500 g/ha: Polygonum, 504 h, read-out: % damage, Polygonum; for pest or weed control at 250 g/ha / % damage, Polygonum: 250 g of ai./ha; for pest or weed control at 500 g/ha: 500 g of ai./ha. Type of data set: in vivo. As to the method: (§1) Post-emergence Test Solvent: 5 parts by weight of acetone Emulsifier: 1 part by weight of alkylaryl polyglycol ether To produce a suitable preparation of active compound, 1 part by weight of active compound is mixed with the stated amount of solvent, the stated amount of emulsifier is added and the concentrate is diluted with water to the desired concentration. Test plants which have a height of 5-15 cm are sprayed with the preparation of active compound such that the particular amounts of active compounds desired are applied per unit area. The concentration of the spray liquor is chosen so that the particular amounts of active compound desired are applied in 1000 l of water/ha. After three weeks, the degree of damage to the plants is scored visually in % damage in comparison to the untreated control. The Figures Denote: 0%=no effect (like untreated control) 100%=total destruction

Another data set has as its system Chenopodium. Nature of the data set: Post-emergence test. Type of data set: in vivo. To be noted: greenhouse, scored after three weeks; for pest or weed control at 250 g/ha / pest or weed control at 500 g/ha: Chenopodium, 504 h, read-out: % damage, Chenopodium; for pest or weed control at 250 g/ha / % damage, Chenopodium: 250 g of ai./ha; for pest or weed control at 500 g/ha: 500 g of ai./ha. How it is done: as §1

A further data set has as its system Amaranthus. Kind of data set: Post-emergence test. Type of data set: in vivo. Conditions: greenhouse, scored after three weeks; for pest or weed control at 250 g/ha / pest or weed control at 500 g/ha: Amaranthus, 504 h, read-out: % damage, Amaranthus; for pest or weed control at 250 g/ha / % damage, Amaranthus: 250 g of ai./ha; for pest or weed control at 500 g/ha: 500 g of ai./ha. How it is done: as §1

In the next data set the test system is Setaria. Kind of data set: Post-emergence test. Conditions: greenhouse, scored after three weeks; for pest or weed control at 250 g/ha / pest or weed control at 500 g/ha: Setaria, 504 h, read-out: % damage, Setaria; for pest or weed control at 250 g/ha / % damage, Setaria: 250 g of ai./ha; for pest or weed control at 500 g/ha: 500 g of ai./ha. Type of data set: in vivo. How it is done: as §1

The test system of a further data set is Viola. Kind of data set: Post-emergence test. Type of data set: in vivo. To be noted: greenhouse, scored after three weeks; for pest or weed control at 250 g/ha / pest or weed control at 500 g/ha: 504 h, read-out: % damage, Viola; for pest or weed control at 250 g/ha / % damage, Viola: 250 g of ai./ha; for pest or weed control at 500 g/ha: 500 g of ai./ha. As to the method: as §1

Another data set relates to Wheat. Nature of the data set: Post-emergence test. Type of data set: in vivo. Conditions: greenhouse, scored after three weeks; for plant injury at 500 g/ha: 500 g of ai./ha. How it is done:
as §1

The mark [1] stands for this setting: Triticum aestivum, 504 h, read-out: % damage, Wheat.

The term melting point denotes the temperature of the solid-liquid transition. In the case of `CSc1ccc(C(C)Nc2nc(N)nc(C(F)(F)F)n2)cc1` (racemic) [Example 1, 2-amino4-trifluoromethyl-6-[1-(4-methylthio-phenyl)-ethylamino]-1,3,5-triazine], the melting point was 111 °C.
Same read-out and setting: then `CSc1ccc(C(C)Nc2nc(NC(C)=O)nc(C(F)(F)F)n2)cc1` (racemic) [Example 2, 2-acetylamino-4-trifluoromethyl-6-[1-(4-methylthio-phenyl)-ethylamino]-1,3,5-triazine], with 132 °C; and `CC(Nc1nc(N)nc(C(F)(F)F)n1)c1ccc([S+](C)[O-])cc1` (racemic) [Example 3, 2-amino-4-trifluoromethyl-6-[1-(4-methylsulphinyl-phenyl)-ethylamino]-1,3,5-triazine], with 220 °C (dec.).
`COc1ccc(C(C)Nc2nc(NC(C)=O)nc(C(F)(F)F)n2)cc1` (centres unmarked) [Example 82] displayed a melting point of 130 °C. Also, in the data set on weeds, the activity against weeds entry was “strong activity”.
Molecule `COc1ccc(C(C)Nc2nc(NC(C)=O)nc(C(F)(F)F)n2)cc1` (centres unmarked) [Example 84] gave a melting point of 108 °C. Further, in the data set with weeds, the activity against weeds entry is “strong activity”.
The corresponding values for `CCC(Nc1nc(N)nc(C(F)(F)F)n1)c1ccc(Cl)cc1` (centres unmarked) [Example 85] are 145 °C and “strong activity”.
For the molecule `CCC(Nc1nc(NC(C)=O)nc(C(F)(F)F)n1)c1ccc(Cl)cc1` (centres unmarked) [Example 90], the melting point is 116 °C. Also, in the data set on weeds, the activity against weeds result is listed as “strong activity”.
The corresponding values for `COCc1nc(N)nc(NC(C)c2ccc(Cl)cc2)n1` (centres unmarked) [Example 98] are 149 °C and “strong activity”.
`COCc1nc(NC(C)=O)nc(NC(C)c2ccc(SC)cc2)n1` (centres unmarked) [Example 103]: the melting point came out at 141 °C. For the same molecule, in the data set on weeds, the activity against weeds entry is given as “strong activity”.
The corresponding values for `CSc1ccc(C(C)Nc2nc(N)nc(C(Cl)Cl)n2)cc1` (centres unmarked) [Example 108] are 125 °C and “strong activity”.
`CSc1ccc(C(C)Nc2nc(N)nc(C(C)(Cl)Cl)n2)cc1` (centres unmarked) [Example 126] returned a melting point of 133 °C. The activity against weeds result in the data set on weeds is “strong activity”.
On the same counts, the results for `CC(=O)Nc1nc(NC(C)c2ccc(Cl)cc2)nc(C(Cl)Cl)n1` (centres unmarked) [Example 145] are 132 °C and “strong activity”.
Turning to `CC(=O)Nc1nc(NC(C)c2ccc(Cl)cc2)nc(C(C)Cl)n1` (centres unmarked) [Example 146], the melting point was found to be 126 °C. For the same molecule, the activity against weeds result in the data set with weeds is “strong activity”.
In the case of `CC(=O)Nc1nc(NC(C)c2ccc(Cl)cc2)nc(C(C)Cl)n1` (centres unmarked) [drawing 122], the pest or weed control at 250 g/ha with Polygonum amounted to 100%; in the data set on Chenopodium, 100%; in the data set with Amaranthus, 100%; in the data set with Setaria, 80%; in the data set on Viola it was 95%. Further, the plant injury at 250 g/ha in the data set with Wheat (Triticum aestivum, 504 h, 250 g of ai./ha, read-out: % damage, Wheat) was found to be 10%.
As for `CC(Nc1nc(N)nc(C(F)C(F)(F)F)n1)c1ccc(Cl)cc1` (centres unmarked) [drawing 124], the “% damage, Polygonum” value with Polygonum turned out to be 95%. The “% damage, Chenopodium” value in the data set with Chenopodium worked out at 100%. Besides, the “% damage, Amaranthus” value with Amaranthus stood at 100%. Further, the “% damage, Setaria” value in the data set with Setaria is 90%. Further, in the data set with Viola, the “% damage, Viola” value is listed as 95%. Further, in the data set on Wheat (250 g of ai./ha), the “% damage, Wheat” value was determined as 10%.
For `CC(Cl)c1nc(N)nc(NC(C)c2ccc(Cl)cc2)n1` (centres unmarked) [drawing 125], the “% damage, Polygonum” value in the data set with Polygonum came out at 95%. Further, in the data set with Chenopodium, the “% damage, Chenopodium” value turned out to be 95%. Moreover, in the data set with Amaranthus, the “% damage, Amaranthus” value came to 100%. The “% damage, Setaria” value in the data set with Setaria came to 80%. Besides, in the data set with Viola, the “% damage, Viola” value came to 95%. In addition, the “% damage, Wheat” value with Wheat (250 g of ai./ha) amounted to 10%.
With `CC(Nc1nc(N)nc(C(C)(Cl)Cl)n1)c1ccc(Cl)cc1` (centres unmarked) [drawing 126], the pest or weed control at 500 g/ha with Polygonum was 100%; in the data set with Chenopodium, 100%; with Amaranthus, 100%; in the data set on Setaria, 90%; in the data set on Viola, 100%. Moreover, the plant injury at 500 g/ha in the data set on Wheat (setting [1]) was 10%.
Regarding `CC(Nc1nc(N)nc(C(F)C(F)(F)F)n1)c1ccc(Cl)cc1` (centres unmarked) [drawing 128], in the data set on Polygonum, the “% damage, Polygonum” value came out at 100%. In the data set with Chenopodium, the “% damage, Chenopodium” value was 100%. Moreover, in the data set with Amaranthus, the “% damage, Amaranthus” value is recorded as 100%. Moreover, the “% damage, Setaria” value in the data set on Setaria is on record as 90%. Besides, the “% damage, Viola” value in the data set on Viola stood at 100%. Also, the “% damage, Wheat” value with Wheat (250 g of ai./ha) amounted to 10%.
In the case of `CC(Nc1nc(N)nc(C(Cl)Cl)n1)c1ccc(Cl)cc1` (centres unmarked) [drawing 129], the pest or weed control at 500 g/ha in the data set on Polygonum, in the data set with Chenopodium, in the data set on Amaranthus, in the data set on Setaria and in the data set on Viola was 100% each time. Also, the plant injury at 500 g/ha in the data set on Wheat (setting [1]) came to 10%.
As for `CC(Cl)c1nc(N)nc(NC(C)c2ccc(Cl)cc2)n1` (centres unmarked) [drawing 131], in the data set on Polygonum, the “% damage, Polygonum” value was 100%. Moreover, the “% damage, Chenopodium” value with Chenopodium was found to be 100%. Besides, in the data set with Amaranthus, the “% damage, Amaranthus” value is 100%. Further, the “% damage, Setaria” value in the data set with Setaria came out at 90%. The “% damage, Viola” value in the data set on Viola came to 100%. Besides, the “% damage, Wheat” value with Wheat (250 g of ai./ha) was 10%.
Consider `CCc1nc(NC(C)=O)nc(NC(C)c2ccc(Cl)cc2)n1` (centres unmarked) [drawing 132], for which the pest or weed control at 500 g/ha in the data set with Polygonum amounted to 100%; in the data set on Chenopodium it was 100%; in the data set on Amaranthus it was 100%; in the data set on Setaria, 80%; in the data set with Viola, 100%. Moreover, the plant injury at 500 g/ha with Wheat (setting [1]) worked out at 10%.
In the case of `CC(=O)Nc1nc(NC(C)c2ccc(Cl)cc2)nc(C(Cl)Cl)n1` (centres unmarked) [drawing 133], the pest or weed control at 500 g/ha in the data set on Polygonum was 100%; with Chenopodium it was 100%; with Amaranthus it was 100%; in the data set with Setaria, 80%; in the data set with Viola, 100%. Further, the plant injury at 500 g/ha with Wheat (setting [1]) was 10%.
On to `CC(=O)Nc1nc(NC(C)c2ccc(Cl)cc2)nc(C(C)Cl)n1` (centres unmarked) [drawing 134], for which the pest or weed control at 500 g/ha in the data set with Polygonum, with Chenopodium, with Amaranthus, with Setaria and in the data set on Viola was 100% throughout. In addition, the plant injury at 500 g/ha with Wheat (setting [1]) was 10%.
With `COCc1nc(NC(C)=O)nc(NC(C)c2ccc(Cl)cc2)n1` (centres unmarked) [drawing 135], the pest or weed control at 500 g/ha in the data set with Polygonum is 100%; in the data set with Chenopodium, 100%; in the data set on Amaranthus, 100%; in the data set on Setaria, 70%; in the data set on Viola, 100%. Also, the plant injury at 500 g/ha in the data set on Wheat (setting [1]) is 10%.
Turning to `CCC(Nc1nc(N)nc(C(F)(F)F)n1)c1ccc(Cl)cc1` (centres unmarked) [drawing 137], the pest or weed control at 250 g/ha is 100% in the data set on Polygonum; 100% in the data set with Chenopodium; 100% in the data set on Amaranthus; 95% with Setaria; 100% in the data set on Viola. The “% damage, Wheat” value in the data set on Wheat (250 g of ai./ha) was determined as 0%.
Consider `COc1ccc(C(C)Nc2nc(N)nc(C(F)(F)F)n2)cc1` (centres unmarked) [drawing 138], for which the pest or weed control at 500 g/ha in the data set on Polygonum, with Chenopodium, in the data set with Amaranthus, in the data set on Setaria and with Viola was 100% throughout. For the same molecule, in the data set with Wheat (setting [1]), the plant injury at 500 g/ha turned out to be 0%.
Regarding `COc1ccc(C(C)Nc2nc(NC(C)=O)nc(C(F)(F)F)n2)cc1` (centres unmarked) [drawing 141], the pest or weed control at 500 g/ha came out at 100% with Polygonum; 100% with Chenopodium; 100% in the data set with Amaranthus; 95% in the data set on Setaria; 100% in the data set with Viola. Moreover, the plant injury at 500 g/ha in the data set on Wheat (setting [1]) was 10%.
